Data reported in the supplement of paper PMC4862054.

Tests used:
Details in all cases: incubation time: 72 h
[1] = tested on: CAL-85-1; experiment: drug sensitivity score (DSS), CellTiter-Blue viability (DSS (AUC-based score)); higher = stronger viability inhibition; extreme values may be limits of the assay
Experimental: (§1)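 DSRT with the CellTiter-Blue (resazurin reduction) viability readout, fluorescence 560/590 nm, 72 h incubation. Plates were normalised to DMSO and benzethonium chloride controls. DSS is computed from the area under the fitted dose-response curve (5 or 9 concentrations).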

[2] = tested on: CAL-120; experiment: as above
Experimental: as §1

[3] = tested on: CAL-51; experiment: as above
Experimental: as §1

[4] = tested on: DU-4475; experiment: as above
Experimental: as §1

[5] = tested on: SK-BR-3; experiment: as above
Experimental: as §1

[6] = tested on: MDA-MB-436; experiment: as above
Experimental: as §1

[7] = tested on: HCC1599; experiment: as above
Experimental: as §1

[8] = tested on: Hs578T; experiment: as above
Experimental: as §1

[9] = tested on: BT-474; experiment: as above
Experimental: as §1

[10] = tested on: HCC1937; experiment: as above
Experimental: as §1

[11] = tested on: CAL-148; experiment: as above
Experimental: as §1

[12] = tested on: CAL-85-1; experiment: drug sensitivity score (DSS), CellTox Green (DSS (AUC-based score)); higher = stronger drug effect (viability inhibition or cytotoxicity); extreme values may be limits of the assay
Outline: (§2)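 Compound was dispensed into 384-well plates at 5 concentrations in 10-fold steps spanning a 10,000-fold range chosen for each compound, and 20 µl of breast cancer cell suspension was added before 72 h of incubation. CellTox Green fluorescence was read at 485/520 nm, followed by CellTiter-Glo luminescence after 10 min at room temperature. Values on each plate were normalised to 0.1 % DMSO and a positive kill control. The drug sensitivity score came from the area under the fitted dose-response curve.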

[13] = tested on: BT-549; experiment: as above
Outline: as §2

[14] = tested on: CAL-120; experiment: as above
Outline: as §2

[15] = tested on: MDA-MB-231; experiment: as above
Outline: as §2

[16] = tested on: CAL-51; experiment: as above
Outline: as §2

[17] = tested on: HCC1143; experiment: as above
Outline: as §2

[18] = tested on: DU-4475; experiment: as above
Outline: as §2

[19] = tested on: MDA-MB-468; experiment: as above
Outline: as §2

[20] = tested on: MDA-MB-436; experiment: as above
Outline: as §2

[21] = tested on: MFM-223; experiment: as above
Outline: as §2

[22] = tested on: HDQ-P1; experiment: as above
Outline: as §2

[23] = tested on: MDA-MB-453; experiment: as above
Outline: as §2

[24] = tested on: HCC1937; experiment: as above
Outline: as §2

[25] = tested on: MCF-10A; experiment: as above
Outline: as §2

[26] = tested on: Hs578T; experiment: as above
Outline: as §2

C=C(c1ccc(C(=O)O)cc1)c1cc2c(cc1C)C(C)(C)CCC2(C)C [Bexarotene]
drug sensitivity score [1]: 0
drug sensitivity score [2]: 0
drug sensitivity score [3]: 0
drug sensitivity score [4]: 0
drug sensitivity score [5]: 0
drug sensitivity score [6]: 0
drug sensitivity score [7]: 0
drug sensitivity score [8]: 0
drug sensitivity score [9]: 0
drug sensitivity score [10]: 2.11
drug sensitivity score [11]: 1.2
drug sensitivity score [12]: 0
drug sensitivity score [13]: 0
drug sensitivity score [14]: 0
drug sensitivity score [15]: 0
drug sensitivity score [16]: 0
drug sensitivity score [17]: 0
drug sensitivity score [18]: 0
drug sensitivity score [19]: 0
drug sensitivity score [20]: 0
drug sensitivity score [21]: 0
drug sensitivity score [22]: 0
drug sensitivity score [23]: 0
drug sensitivity score [24]: 0
drug sensitivity score [25]: 0

CCN(CCCOc1ccc2c(Nc3cc(CC(=O)Nc4cccc(F)c4)[nH]n3)ncnc2c1)CCOP(=O)(O)O [Barasertib]
drug sensitivity score [1]: 4.42
drug sensitivity score [2]: 8.21
drug sensitivity score [3]: 8.86
drug sensitivity score [4]: 4.75
drug sensitivity score [5]: 0
drug sensitivity score [6]: 0
drug sensitivity score [7]: 0
drug sensitivity score [8]: 7.48
drug sensitivity score [9]: 0
drug sensitivity score [10]: 9.75
drug sensitivity score [11]: 20.5

CC(=O)Nc1ccc(C(=O)Nc2ccccc2N)cc1 [CI-994]
drug sensitivity score [1]: 0
drug sensitivity score [2]: 0
drug sensitivity score [3]: 0
drug sensitivity score [4]: 0
drug sensitivity score [5]: 0
drug sensitivity score [6]: 0
drug sensitivity score [7]: 0
drug sensitivity score [8]: 0
drug sensitivity score [9]: 0
drug sensitivity score [10]: 0
drug sensitivity score [11]: 0

C[C@@H](Oc1cc(-c2cnn(C3CCNCC3)c2)cnc1N)c1c(Cl)ccc(F)c1Cl [Crizotinib]
drug sensitivity score [1]: 3.39
drug sensitivity score [2]: 6.42
drug sensitivity score [3]: 4.08
drug sensitivity score [4]: 3.43
drug sensitivity score [5]: 4.22
drug sensitivity score [6]: 14.8
drug sensitivity score [7]: 0
drug sensitivity score [8]: 1.65
drug sensitivity score [9]: 5.02
drug sensitivity score [10]: 6.92
drug sensitivity score [11]: 2.67
drug sensitivity score [12]: 0
drug sensitivity score [13]: 0
drug sensitivity score [14]: 0
drug sensitivity score [15]: 0
drug sensitivity score [16]: 0
drug sensitivity score [17]: 0
drug sensitivity score [18]: 0
drug sensitivity score [19]: 0
drug sensitivity score [21]: 0
drug sensitivity score [22]: 0.784
drug sensitivity score [23]: 0
drug sensitivity score [26]: 0
drug sensitivity score [24]: 0
drug sensitivity score [25]: 0

CC(C)Cn1cnc2c(N)nc3ccccc3c21 [Imiquimod]
drug sensitivity score [1]: 0
drug sensitivity score [2]: 0
drug sensitivity score [3]: 0
drug sensitivity score [4]: 0
drug sensitivity score [5]: 0
drug sensitivity score [6]: 0
drug sensitivity score [7]: 0
drug sensitivity score [8]: 0
drug sensitivity score [9]: 0
drug sensitivity score [10]: 0
drug sensitivity score [11]: 0
drug sensitivity score [12]: 1.01
drug sensitivity score [13]: 0.506
drug sensitivity score [14]: 0
drug sensitivity score [15]: 0
drug sensitivity score [16]: 0
drug sensitivity score [17]: 0
drug sensitivity score [18]: 0
drug sensitivity score [19]: 3.54
drug sensitivity score [20]: 0
drug sensitivity score [21]: 0
drug sensitivity score [22]: 1.63
drug sensitivity score [23]: 0
drug sensitivity score [24]: 0
drug sensitivity score [25]: 0

N.N.[Cl][Pt][Cl] [Cisplatin]
drug sensitivity score [1]: 0
drug sensitivity score [2]: 0
drug sensitivity score [3]: 0
drug sensitivity score [4]: 0
drug sensitivity score [5]: 0
drug sensitivity score [6]: 0
drug sensitivity score [7]: 0
drug sensitivity score [8]: 0
drug sensitivity score [9]: 0
drug sensitivity score [10]: 0
drug sensitivity score [11]: 0
drug sensitivity score [12]: 0
drug sensitivity score [13]: 0
drug sensitivity score [14]: 0
drug sensitivity score [15]: 0
drug sensitivity score [16]: 0
drug sensitivity score [17]: 0
drug sensitivity score [18]: 0
drug sensitivity score [20]: 0
drug sensitivity score [21]: 0
drug sensitivity score [22]: 0
drug sensitivity score [23]: 0
drug sensitivity score [26]: 0
drug sensitivity score [24]: 0
drug sensitivity score [25]: 0

Cn1c(CCCC(=O)O)nc2cc(N(CCCl)CCCl)ccc21 [Bendamustine]
drug sensitivity score [1]: 0
drug sensitivity score [2]: 0
drug sensitivity score [3]: 0
drug sensitivity score [4]: 0
drug sensitivity score [5]: 0.0662
drug sensitivity score [6]: 0
drug sensitivity score [7]: 0
drug sensitivity score [8]: 0
drug sensitivity score [9]: 0
drug sensitivity score [10]: 0
drug sensitivity score [11]: 0
drug sensitivity score [12]: 0
drug sensitivity score [13]: 0
drug sensitivity score [14]: 0
drug sensitivity score [15]: 4.63
drug sensitivity score [16]: 0
drug sensitivity score [17]: 0
drug sensitivity score [18]: 0
drug sensitivity score [19]: 4.02
drug sensitivity score [20]: 0
drug sensitivity score [21]: 0
drug sensitivity score [22]: 0
drug sensitivity score [23]: 0
drug sensitivity score [24]: 0
drug sensitivity score [25]: 0

C#Cc1cccc(Nc2ncnc3cc(OCCOC)c(OCCOC)cc23)c1 [Erlotinib]
drug sensitivity score [1]: 8.53
drug sensitivity score [2]: 3.43
drug sensitivity score [3]: 0
drug sensitivity score [4]: 0
drug sensitivity score [5]: 3.78
drug sensitivity score [6]: 2.82
drug sensitivity score [7]: 3.83
drug sensitivity score [8]: 0
drug sensitivity score [9]: 4.23
drug sensitivity score [10]: 4.19
drug sensitivity score [11]: 5.88
drug sensitivity score [12]: 6.41
drug sensitivity score [13]: 0
drug sensitivity score [14]: 0
drug sensitivity score [16]: 2.1
drug sensitivity score [17]: 0
drug sensitivity score [18]: 0
drug sensitivity score [19]: 0
drug sensitivity score [20]: 0
drug sensitivity score [21]: 0
drug sensitivity score [22]: 0
drug sensitivity score [23]: 0
drug sensitivity score [26]: 0
drug sensitivity score [24]: 0
drug sensitivity score [25]: 0

Cc1ccc(C(=O)N(CCCN)[C@@H](c2oc3cc(Cl)ccc3c(=O)c2Cc2ccccc2)C(C)C)cc1
drug sensitivity score [1]: 19.9
drug sensitivity score [2]: 27.6
drug sensitivity score [3]: 20.1
drug sensitivity score [4]: 20.2
drug sensitivity score [5]: 31.6
drug sensitivity score [6]: 13.4
drug sensitivity score [7]: 0
drug sensitivity score [8]: 25.7
drug sensitivity score [9]: 21.6
drug sensitivity score [10]: 29.8
drug sensitivity score [11]: 23.3
drug sensitivity score [12]: 0
drug sensitivity score [13]: 0
drug sensitivity score [14]: 0
drug sensitivity score [15]: 0
drug sensitivity score [16]: 0
drug sensitivity score [17]: 0
drug sensitivity score [18]: 0
drug sensitivity score [19]: 0
drug sensitivity score [20]: 0
drug sensitivity score [21]: 0
drug sensitivity score [23]: 0
drug sensitivity score [26]: 2.03
drug sensitivity score [24]: 0
drug sensitivity score [25]: 0

O=P1(NCCCl)OCCCN1CCCl (centres undefined) [Ifosfamide]
drug sensitivity score [1]: 0
drug sensitivity score [2]: 0
drug sensitivity score [3]: 0
drug sensitivity score [4]: 0
drug sensitivity score [5]: 0
drug sensitivity score [6]: 0
drug sensitivity score [7]: 0
drug sensitivity score [8]: 0
drug sensitivity score [9]: 0
drug sensitivity score [10]: 0
drug sensitivity score [11]: 0
drug sensitivity score [12]: 0
drug sensitivity score [13]: 0.736
drug sensitivity score [14]: 0
drug sensitivity score [15]: 1.11
drug sensitivity score [16]: 0
drug sensitivity score [17]: 0
drug sensitivity score [18]: 0
drug sensitivity score [19]: 0
drug sensitivity score [21]: 0
drug sensitivity score [22]: 0
drug sensitivity score [23]: 0
drug sensitivity score [26]: 0
drug sensitivity score [25]: 0

C[C@]12CC[C@@H]3c4ccc(O)cc4C[C@@H](CCCCCCCCC[S+]([O-])CCCC(F)(F)C(F)(F)F)[C@H]3[C@@H]1CC[C@@H]2O (some centres undefined) [Fulvestrant]
drug sensitivity score [1]: 0
drug sensitivity score [2]: 0
drug sensitivity score [3]: 0
drug sensitivity score [4]: 0
drug sensitivity score [5]: 0
drug sensitivity score [6]: 0
drug sensitivity score [7]: 0
drug sensitivity score [8]: 0
drug sensitivity score [9]: 0
drug sensitivity score [10]: 0
drug sensitivity score [11]: 0
drug sensitivity score [12]: 0
drug sensitivity score [13]: 0
drug sensitivity score [14]: 0
drug sensitivity score [15]: 0
drug sensitivity score [16]: 0
drug sensitivity score [17]: 0
drug sensitivity score [18]: 0
drug sensitivity score [20]: 0
drug sensitivity score [21]: 0
drug sensitivity score [22]: 0
drug sensitivity score [23]: 0
drug sensitivity score [26]: 0
drug sensitivity score [24]: 0
drug sensitivity score [25]: 0

Cc1ccc(C(=O)Nc2ccc(CN3CCN(C)CC3)c(C(F)(F)F)c2)cc1C#Cc1cnc2cccnn12 [Ponatinib]
drug sensitivity score [1]: 0
drug sensitivity score [2]: 7.25
drug sensitivity score [3]: 3.79
drug sensitivity score [4]: 0
drug sensitivity score [5]: 0
drug sensitivity score [6]: 0
drug sensitivity score [7]: 2.44
drug sensitivity score [8]: 0.512
drug sensitivity score [9]: 0
drug sensitivity score [10]: 0
drug sensitivity score [11]: 0.922

NCC(=O)CCC(=O)O [Aminolevulinic acid]
drug sensitivity score [1]: 0
drug sensitivity score [2]: 0
drug sensitivity score [3]: 0
drug sensitivity score [4]: 0
drug sensitivity score [5]: 0
drug sensitivity score [6]: 0
drug sensitivity score [7]: 0
drug sensitivity score [8]: 0
drug sensitivity score [9]: 0
drug sensitivity score [10]: 0
drug sensitivity score [11]: 0

Cn1c(Nc2ccc(C(F)(F)F)cc2)nc2cc(Oc3ccnc(-c4ncc(C(F)(F)F)[nH]4)c3)ccc21 [RAF265]
drug sensitivity score [1]: 0
drug sensitivity score [2]: 6.51
drug sensitivity score [3]: 3.43
drug sensitivity score [4]: 3.23
drug sensitivity score [5]: 0
drug sensitivity score [6]: 2.55
drug sensitivity score [7]: 0
drug sensitivity score [8]: 1.15
drug sensitivity score [9]: 0
drug sensitivity score [10]: 4.12
drug sensitivity score [11]: 0
drug sensitivity score [12]: 4.33
drug sensitivity score [13]: 9.17
drug sensitivity score [14]: 0
drug sensitivity score [15]: 0
drug sensitivity score [16]: 0
drug sensitivity score [17]: 0
drug sensitivity score [18]: 0
drug sensitivity score [19]: 0
drug sensitivity score [20]: 0
drug sensitivity score [21]: 2.58
drug sensitivity score [22]: 0
drug sensitivity score [23]: 0
drug sensitivity score [26]: 0
drug sensitivity score [24]: 0

O=C1CCC(N2C(=O)c3ccccc3C2=O)C(=O)N1 (centres undefined) [Thalidomide]
drug sensitivity score [1]: 0
drug sensitivity score [2]: 0
drug sensitivity score [3]: 0
drug sensitivity score [4]: 0
drug sensitivity score [5]: 0
drug sensitivity score [6]: 0
drug sensitivity score [7]: 0
drug sensitivity score [8]: 0
drug sensitivity score [9]: 0
drug sensitivity score [10]: 0
drug sensitivity score [11]: 0
drug sensitivity score [12]: 0
drug sensitivity score [13]: 0
drug sensitivity score [14]: 0
drug sensitivity score [15]: 0
drug sensitivity score [16]: 0
drug sensitivity score [17]: 0
drug sensitivity score [18]: 0
drug sensitivity score [19]: 0
drug sensitivity score [20]: 4.46
drug sensitivity score [21]: 0
drug sensitivity score [23]: 0
drug sensitivity score [26]: 0
drug sensitivity score [24]: 0
drug sensitivity score [25]: 0

NC(=O)Nc1cc(-c2cccc(F)c2)sc1C(=O)N[C@H]1CCCNC1 [AZD 7762]
drug sensitivity score [1]: 6.01
drug sensitivity score [2]: 2.17
drug sensitivity score [3]: 2.84
drug sensitivity score [4]: 2.46
drug sensitivity score [5]: 4.87
drug sensitivity score [6]: 5.44
drug sensitivity score [7]: 5.69
drug sensitivity score [8]: 5.73
drug sensitivity score [9]: 0
drug sensitivity score [10]: 2.04
drug sensitivity score [11]: 2.2
